Reference: patent US7501275B2, “Yeast transformation system” (The United States of America as represented by the …, priority 2004, dated 2009)

System: Pichia stipitis UC7 NRRL Y-21448
Experiment: Testing for sensitivity to Zeocin: plating on YPD pH 7.5 with Zeocin
Format: cell-based
Conditions: plated on YPD pH 7.5; Zeocin tested from 25 μg/ml to 500 μg/ml
Procedure: Pichia stipitis UC7 NRRL Y-21448 (2) is a ura3 auxotrophic mutant of P. stipitis CBS 6054 (ARS Culture Collection, NRRL USDA Peoria, Ill.). To test if Pichia stipitis UC7 is sensitive to Zeocin, UC7 was plated on YPD (Kaiser, Michaelis and Mitchell, 1994) pH 7.5 (1% yeast extract, 2% peptone, 2% dextrose, NaOH to pH 7.5) in the presence of Zeocin (Invitrogen) at a concentration of from 25 μg/ml to 500 μg/ml. Zeocin concentrations of 100 μg/ml or greater killed Pichia stipitis UC7.

SMILES: Cc1c(N)nc([C@H](CC(N)=O)NC[C@H](N)C(N)=O)nc1C(=O)N[C@H](C(=O)N[C@H](C)[C@@H](O)[C@H](C)C(=O)N[C@H](C(=O)NCCC1=N[C@@H](c2nc(C(=O)NCCCCN=C(N)N)cs2)CS1)[C@@H](C)O)[C@@H](O[C@@H]1O[C@@H](CO)[C@@H](O)[C@H](O)[C@@H]1O[C@H]1O[C@H](CO)[C@@H](O)[C@H](OC(N)=O)[C@@H]1O)c1cnc[nH]1 [Zeocin]
- Zeocin concentrations that killed Pichia stipitis UC7: ≥ 100 µg/mL
